Laboratory results reported in ChEMBL document CHEMBL1135358, “Antifungal sordarins. Synthesis and structure-activity relationships of 3'-O-substituted derivatives” (2002).
In brackets after ≈: the same amount, converted by molar mass.

How the values were obtained:
Assay type in all cases: functional
Candida tropicalis [1] = assay: In vitro Minimum inhibitory concentration (MIC) for antifungal activity against Candida tropicalis 2808
Candida albicans [2] = assay: In vitro Minimum inhibitory concentration (MIC) for antifungal activity against Candida albicans 1208
Candida albicans [3] = assay: In vitro Minimum inhibitory concentration (MIC) for antifungal activity against Candida albicans 2402
Candida albicans [4] = assay: In vitro Minimum inhibitory concentration (MIC) for antifungal activity against Candida albicans 2005
Kluyveromyces marxianus [5] = assay: In vitro Minimum inhibitory concentration (MIC) for antifungal activity against Candida pseudotropicalis 2371
Cryptococcus neoformans [6] = assay: In vitro Minimum inhibitory concentration (MIC) for antifungal activity against Cryptococcus neoformans 2867
Cryptococcus neoformans [7] = assay: In vitro Minimum inhibitory concentration (MIC) for antifungal activity against Cryptococcus neoformans 2867E
Kluyveromyces marxianus [8] = assay: In vitro Minimum inhibitory concentration (MIC) for antifungal activity against Candida pseudotropicalis 2371E
Candida albicans [9] = assay: In vitro Minimum inhibitory concentration (MIC) for antifungal activity against Candida albicans 1208E
Candida albicans [10] = assay: In vitro Minimum inhibitory concentration (MIC) for antifungal activity against Candida albicans 2402E
Candida albicans [11] = assay: In vitro Minimum inhibitory concentration (MIC) for antifungal activity against Candida albicans 2005E
Candida tropicalis [12] = assay: In vitro Minimum inhibitory concentration (MIC) for antifungal activity against Candida tropicalis 2808E

Row | MIC (Candida tropicalis [1]) [µg/mL] | MIC (Candida albicans [2]) [µg/mL] | MIC (Candida albicans [3]) [µg/mL] | MIC (Candida albicans [4]) [µg/mL] | MIC (Kluyveromyces marxianus [5]) [µg/mL] | MIC (Cryptococcus neoformans [6]) [µg/mL] | MIC (Cryptococcus neoformans [7]) [µg/mL] | MIC (Kluyveromyces marxianus [8]) [µg/mL] | MIC (Candida albicans [9]) [µg/mL] | MIC (Candida albicans [10]) [µg/mL] | MIC (Candida albicans [11]) [µg/mL] | MIC (Candida tropicalis [12]) [µg/mL] | Compound
1 | 2 (≈ 3.09 µM) | 4 (≈ 6.17 µM) | 2 (≈ 3.09 µM) | 0.06 (≈ 0.0926 µM) | 1 (≈ 1.54 µM) | 31 (≈ 47.9 µM) |  |  |  |  |  |  | CCCCCCCCNC(=O)O[C@H]1C(O)[C@H](OCC23C[C@@H]4[C@H](C)CC[C@H]4C4(C=O)CC2C=C(C(C)C)C34C(=O)O)O[C@H](C)[C@H]1OC (some centres undefined)
2 | 8 (≈ 12.3 µM) | 1 (≈ 1.54 µM) | 0.5 (≈ 0.771 µM) | 0.25 (≈ 0.385 µM) | 0.12 (≈ 0.185 µM) | 8 (≈ 12.3 µM) |  |  |  |  |  |  | CCCCCCCCOC(=O)O[C@H]1C(O)[C@H](OCC23C[C@@H]4[C@H](C)CC[C@H]4C4(C=O)CC2C=C(C(C)C)C34C(=O)O)O[C@H](C)[C@H]1OC (some centres undefined)
3 | 0.03 (≈ 0.0508 µM) | 0.25 (≈ 0.423 µM) | 0.25 (≈ 0.423 µM) | 0.015 (≈ 0.0254 µM) | 0.01 (≈ 0.0169 µM) | 16 (≈ 27.1 µM) |  |  |  |  |  |  | CCCCCC(=O)OC1C(O)[C@H](OCC23C[C@@H]4[C@H](C)CC[C@H]4C4(C=O)CC2C=C(C(C)C)C34C(=O)O)O[C@H](C)[C@H]1OC (single isomer, unassigned)
4 | 8 (≈ 12.4 µM) | 1 (≈ 1.55 µM) | 1 (≈ 1.55 µM) | 0.25 (≈ 0.386 µM) | 0.25 (≈ 0.386 µM) | 1 (≈ 1.55 µM) |  |  |  |  |  |  | CCCCCCCCCC(=O)OC1C(O)[C@H](OCC23C[C@@H]4[C@H](C)CC[C@H]4C4(C=O)CC2C=C(C(C)C)C34C(=O)O)O[C@H](C)[C@H]1OC (single isomer, unassigned)
5 |  |  |  |  |  |  | 31 (≈ 53.7 µM) | 0.25 (≈ 0.433 µM) | 4 (≈ 6.94 µM) | 2 (≈ 3.47 µM) | 0.25 (≈ 0.433 µM) | 1 (≈ 1.73 µM) | CCCCCCOC1[C@H](O)[C@H](OCC23C[C@@H]4[C@H](C)CC[C@H]4C4(C=O)CC2C=C(C(C)C)C34C(=O)O)O[C@H](C)[C@H]1OC (single isomer, unassigned)
6 | 0.06 (≈ 0.097 µM) | 0.06 (≈ 0.097 µM) | 0.03 (≈ 0.0485 µM) | < 0.001 | 0.004 (≈ 0.00646 µM) | 0.25 (≈ 0.404 µM) |  |  |  |  |  |  | CCCCCCCC(=O)OC1C(O)[C@H](OCC23C[C@@H]4[C@H](C)CC[C@H]4C4(C=O)CC2C=C(C(C)C)C34C(=O)O)O[C@H](C)[C@H]1OC (single isomer, unassigned)

Further lines, the compound ahead of its results:

Row | Compound | MIC (Candida tropicalis [1]) [µg/mL] | MIC (Candida albicans [2]) [µg/mL] | MIC (Candida albicans [3]) [µg/mL] | MIC (Candida albicans [4]) [µg/mL] | MIC (Kluyveromyces marxianus [5]) [µg/mL] | MIC (Cryptococcus neoformans [6]) [µg/mL] | MIC (Cryptococcus neoformans [7]) [µg/mL] | MIC (Kluyveromyces marxianus [8]) [µg/mL] | MIC (Candida albicans [9]) [µg/mL] | MIC (Candida albicans [10]) [µg/mL] | MIC (Candida albicans [11]) [µg/mL] | MIC (Candida tropicalis [12]) [µg/mL]
7 | CO[C@H]1[C@@H](OC(=O)OCc2ccccc2)[C@H](OC(=O)OCc2ccccc2)[C@H](OCC23C[C@@H]4[C@H](C)CC[C@H]4C4(C=O)CC2C=C(C(C)C)C34C(=O)O)O[C@@H]1C (some centres undefined) |  |  |  |  |  |  | > 62 | > 62 | > 62 | > 62 | 62 (≈ 81.5 µM) | > 62
8 | CCCCCC(=O)O[C@H]1[C@H](OC(=O)CCCCC)[C@H](OCC23C[C@@H]4[C@H](C)CC[C@H]4C4(C=O)CC2C=C(C(C)C)C34C(=O)O)O[C@H](C)[C@H]1OC (some centres undefined) |  |  |  |  |  |  | > 125 | > 125 | 8 (≈ 11.6 µM) | 8 (≈ 11.6 µM) | 4 (≈ 5.81 µM) | > 125
9 | C/C=C/C=C(\C)C(=O)O[C@H]1C(O)[C@H](OCC23C[C@@H]4[C@H](C)CC[C@H]4C4(C=O)CC2C=C(C(C)C)C34C(=O)O)O[C@H](C)[C@H]1OC (some centres undefined) | 0.06 (≈ 0.0999 µM) | 0.25 (≈ 0.416 µM) | 0.03 (≈ 0.0499 µM) | 0.015 (≈ 0.025 µM) | 0.03 (≈ 0.0499 µM) | 0.25 (≈ 0.416 µM) |  |  |  |  |  | 
10 | CCC/C=C(\C)C(=O)O[C@H]1C(O)[C@H](OCC23C[C@@H]4[C@H](C)CC[C@H]4C4(C=O)CC2C=C(C(C)C)C34C(=O)O)O[C@H](C)[C@H]1OC (some centres undefined) | 0.5 (≈ 0.83 µM) | 1 (≈ 1.66 µM) | 0.5 (≈ 0.83 µM) | 0.015 (≈ 0.0249 µM) | 0.12 (≈ 0.199 µM) | 62 (≈ 103 µM) |  |  |  |  |  | 
11 | CO[C@@H]1[C@@H](C)O[C@@H](OCC23C[C@@H]4[C@H](C)CC[C@H]4C4(C=O)CC2C=C(C(C)C)C34C(=O)O)C(O)[C@@H]1OC(=O)OCc1ccccc1 (some centres undefined) | 8 (≈ 12.8 µM) | 8 (≈ 12.8 µM) | 8 (≈ 12.8 µM) | 2 (≈ 3.19 µM) | 2 (≈ 3.19 µM) | > 62 |  |  |  |  |  | 
12 | CCCCC(C)C(=O)OC1C(O)[C@H](OCC23C[C@@H]4[C@H](C)CC[C@H]4C4(C=O)CC2C=C(C(C)C)C34C(=O)O)O[C@H](C)[C@H]1OC (single isomer, unassigned) | 0.25 (≈ 0.413 µM) | 0.12 (≈ 0.198 µM) | 0.06 (≈ 0.0992 µM) | 0.008 (≈ 0.0132 µM) | 0.06 (≈ 0.0992 µM) | 8 (≈ 13.2 µM) |  |  |  |  |  | 
13 | CO[C@H]1C(OC(=O)CCCCCl)C(O)[C@H](OCC23C[C@@H]4[C@H](C)CC[C@H]4C4(C=O)CC2C=C(C(C)C)C34C(=O)O)O[C@@H]1C (single isomer, unassigned) | 1 (≈ 1.64 µM) | 2 (≈ 3.27 µM) | 2 (≈ 3.27 µM) | 0.12 (≈ 0.196 µM) | 0.25 (≈ 0.409 µM) | 16 (≈ 26.2 µM) |  |  |  |  |  | 
14 | CO[C@H]1C(OC(=O)c2ccco2)C(O)[C@H](OCC23C[C@@H]4[C@H](C)CC[C@H]4C4(C=O)CC2C=C(C(C)C)C34C(=O)O)O[C@@H]1C (single isomer, unassigned) | 8 (≈ 13.6 µM) | 16 (≈ 27.3 µM) | 16 (≈ 27.3 µM) | 2 (≈ 3.41 µM) | 4 (≈ 6.82 µM) | > 125 |  |  |  |  |  | 
15 | COCC(=O)OC1C(O)[C@H](OCC23C[C@@H]4[C@H](C)CC[C@H]4C4(C=O)CC2C=C(C(C)C)C34C(=O)O)O[C@H](C)[C@H]1OC (single isomer, unassigned) | > 125 | > 125 | 125 (≈ 221 µM) | 62 (≈ 110 µM) | 16 (≈ 28.3 µM) | 125 (≈ 221 µM) |  |  |  |  |  | 
16 | CO[C@H]1C(OC(=O)c2ccccc2)C(O)[C@H](OCC23C[C@@H]4[C@H](C)CC[C@H]4C4(C=O)CC2C=C(C(C)C)C34C(=O)O)O[C@@H]1C (single isomer, unassigned) | 0.5 (≈ 0.838 µM) | 1 (≈ 1.68 µM) | 1 (≈ 1.68 µM) | 0.12 (≈ 0.201 µM) | 0.25 (≈ 0.419 µM) | > 125 |  |  |  |  |  | 
17 | COC1C(O)C(O)[C@H](OCC23C[C@@H]4[C@H](C)CC[C@H]4C4(C=O)CC2C=C(C(C)C)C34C(=O)O)O[C@@H]1C (single isomer, unassigned) | 16 (≈ 32.5 µM) | 31 (≈ 62.9 µM) | 31 (≈ 62.9 µM) | 8 (≈ 16.2 µM) | 16 (≈ 32.5 µM) | > 125 |  |  |  |  |  | 
18 | CCCC(=O)OC1C(O)[C@H](OCC23C[C@@H]4[C@H](C)CC[C@H]4C4(C=O)CC2C=C(C(C)C)C34C(=O)O)O[C@H](C)[C@H]1OC (single isomer, unassigned) | 2 (≈ 3.55 µM) | 1 (≈ 1.78 µM) | 2 (≈ 3.55 µM) | 0.25 (≈ 0.444 µM) | 0.5 (≈ 0.889 µM) | > 125 |  |  |  |  |  | 
19 | CCCCCC(=O)O[C@@H]1[C@H](OCC23C[C@@H]4[C@H](C)CC[C@H]4C4(C=O)CC2C=C(C(C)C)C34C(=O)O)O[C@H](C)C(OC)[C@H]1O (single isomer, unassigned) |  |  |  |  |  |  | 31 (≈ 52.5 µM) | 31 (≈ 52.5 µM) | 31 (≈ 52.5 µM) | 31 (≈ 52.5 µM) | 8 (≈ 13.5 µM) | 62 (≈ 105 µM)
